Experiments:
[1] = tested on: Pythium ultimum, pathogen of cucumber damping-off; test: Cucumber damping-off seed treatment test (Test Example 1); type: in vivo; conditions: 18° C., 13 days
From the text: An acetone solution of ethaboxam and an acetone solution of metconazole were mixed to prepare mixed liquids containing ethaboxam and metconazole in predetermined concentration. These mixed liquids were adhered on the surface of cucumber (Sagamihanjiro) seeds and allowed to stand still overnight. A plastic pot was filled with sandy soil and the seeds were disseminated on it. Then the seeds were covered with sandy soil which had been mixed with a bran medium on which Pythium ultimum, pathogen of cucumber damping-off, had been allowed to grow. They were irrigated and allowed to grow at 18° C. under humidity for 13 days, and thereafter control effect was checked.
As a comparison, acetone solutions containing ethaboxam in the predetermined concentration and acetone solutions containing metconazole in the predetermined concentration were prepared and subjected to similar tests.
In order to calculate the control value, the incidence of disease was also determined in the case in which the seeds had not been treated with the agent.
The incidence of disease was calculated by Equation 1 and the control value was calculated by Equation 2 based on the incidence of disease.
Incidence of disease=(Number of no emerging seedlings and number of seedlings in which development of disease was observed)×100/(Number of total disseminated seeds) “Equation 1” Control value=100×(A−B)/A “Equation 2”;
A: Incidence of disease of plant in untreated area
B: Incidence of disease of plant in treated area
Generally, the control value expected for the case in which the given two kinds of active ingredient compounds are mixed and used for the treatment, the so-called control value expectation is calculated from the following Colby's calculating equation. E=X+Y−(X×Y)/100 “Equation 3”;
X: Control value (%) when active ingredient compound A is used for treatment in M g per 100 kg or M ppm of seeds
Y: Control value (%) when active ingredient compound B is used for treatment in N g per 100 kg or N ppm of seeds
E: Control value (%) expected for the case in which active ingredient compound A in M g per 100 kg or M ppm of seeds and active ingredient compound B in N g per 100 kg or N ppm of seeds are mixed and used for treatment (hereinbelow referred to as “control value expectation”) “Synergetic effect (%)” (Actual control value)×100/(Control value expectation)

[2] = tested on: pathogen of cucumber gray mold; test: Cucumber gray mold foliar spray test (Test Example 2); type: in vivo, Botrytis cinerea; conditions: 12.5 ppm of each test compound; for Actual control value: spray to stalk and leaves of cucumber seedlings, 12° C., high humidity, 6 days
From the text: A plastic pot was filled with sandy soil and cucumber (Sagamihanjiro) seeds were disseminated on it. Then the seeds were allowed to grow in a glasshouse for 12 days. A wettable powder of ethaboxam and a wettable powder of metconazole were individually diluted with water and then mixed to prepare mixed liquids containing ethaboxam and metconazole in predetermined concentration. These mixed liquids were sprayed to the stalk and leaves of cucumber seedlings to adhere them sufficiently on the surface of leaves of the seedlings. After spraying, the cucumber seedlings were air-dried and a PDA medium containing spores of pathogen of cucumber gray mold was placed onto the leaves of the seedlings. Then the plants were allowed to stand at 12° C. under high humidity for 6 days, and thereafter control effect was checked.
As a comparison, mixed liquids containing ethaboxam and triadimefon, mixed liquids containing ethaboxam and triadimenol, and mixed liquids containing ethaboxam and imazalil were prepared, sprayed to the stalk and leaves of cucumber seedlings to adhere them sufficiently on the surface of leaves of the seedlings, and subjected to similar tests, respectively. In addition, the above wettable powder of ethaboxam and the above wettable powder of metconazole were individually diluted with water to prepare liquids containing ethaboxam in predetermined concentration and liquids containing metconazole in predetermined concentration and then subjected to similar tests.
The incidence of disease was calculated by Equation 4 and the control value was calculated by Equation 2 based on the incidence of disease.
Incidence of disease=(diameter of leaf spot of plant in treated area)/(diameter of leaf spot of plant in untreated area)×100 “Equation 4”

Row | SMILES | Actual control value ([1]; Ethaboxam 5 g/100 kg-seed alone) [%] | Actual control value ([1]; Ethaboxam 10 g/100 kg-seed alone) [%] | Control value expectation [2] [%] | Actual control value [2] [%] | Actual control value ([1]; Metconazole 5 g/100 kg-seed alone) [%] | Actual control value ([1]; Metconazole 10 g/100 kg-seed alone) [%] | Actual control value ([1]; Metconazole 20 g/100 kg-seed alone) [%]
1 | CCNc1nc(CC)c(C(=O)NC(C#N)c2cccs2)s1 (stereo not drawn) [Ethaboxam] | 25 | 58 | 0 | 0 |  |  | 
2 | CC1(C)CCC(Cc2ccc(Cl)cc2)C1(O)Cn1cncn1 (stereo not drawn) [Metconazole] |  |  | 0 | 0 | 0 | 0 | 0

Source: patent publication US8324131B2, “Composition and method for controlling plant diseases” (Sumitomo Chemical Company, Limited, priority 2008, dated 2012)
